In patent publication US10745408B2, “Biologically active taxane analogs and methods of treatment by oral administration” (Tapestry Pharmaceuticals, Inc., priority 2007, dated 2020):

Tests used:
PC-3 = assay: MTS proliferation assay, prostate PC-3; assay type: cell-based; settings: Homo sapiens
Procedure: (§1) MTS Proliferation Assay (Promega)
(§2) Day 1: Cells were plated in appropriate growth medium at 5×10^3 per well in 100 ul in 96 well tissue culture plates, Falcon, one for each drug to be tested. Col 1 was blank; it contained no cells, just medium. The plates were incubated overnight at 37° C., 5% CO2 to allow attachment.
(§3) Day 2: Added 120 ul growth medium in wells of 96-well “dilution plates” (one for each drug) and let sit in 37° C. incubator for about 1 hr.
(§4) Thawed DMSO drug stocks (usually at 10 mM). Each drug was diluted 6 ul into a tube with 3 ml growth medium, to 20 μM.
(§5) Aspirated medium from col 12 of a dilution plate; added 200-300 ul of 20 uM drug to wells of col 12. Made serial dilution down this 96-well plate: for a […] dilution pattern, moved 60 ul from col 12 to col 11, mixed 4-5 times (using 8 place multi-pipettor), moved 60 ul to col 10, etc. stopping at col 3.
(§6) Moved 100 ul of medium+drug from dilution plate to a cell plate, i.e. col 1 from drug plate (blank=no cells) to col 1 of cell plate, etc. up to col 12. Col 2 contained cells with no drug. […]
(§7) Day 4 or 5: Terminated the assay 48 to 72 hrs after drug addition. […] When the color turned dark in control wells (col 2), and was still light in col 12, the absorbance at 490 nm was read on a plate reader; the results were used to calculate IC50.

[1] = Injection formulation administered IV and orally: mouse PK parameters; assay type: in vivo; settings: for half-life: read-out: t ½ (converted)
KBV (MDR+) = assay: MTS proliferation assay, head/neck KBV (MDR+); assay type: cell-based
Procedure: as §1, §2, §3, §4, §5, §6, §7

[2] = tested on: bovine microtubule protein; assay: In vitro ED50 MT polymerization study (DAPI fluorescence tubulin assay); assay type: biochemical; settings: tubulin polymerization, 37° C. 30 minutes, maximum assembly = 25 μM paclitaxel
Procedure: In Vitro ED50 MT Polymerization Study
In this tubulin binding assay, microtubule protein (MTP) is used as a substrate. The assay contains bovine tubulin plus microtubule associated proteins (MAP). MTP is polymerized into microtubules in the presence of DAPI (4′,6′-diamidino-2-phenylindole), a fluorescent compound. DAPI binds to tubulin; when microtubules are formed and there is an enhancement of fluorescence. The microtubule formation is measured as a function of time, using a fluorescence plate reader. […] The method used is based on the procedure published by Donna M. Barron, et al, “Fluorescence-based high-throughput assay for antimicrotuble drugs” Analytical Biochemistry, 315: 49-56, 2003, which is incorporated by reference in its entirety. The excitation wavelength, in that assay, was set at 370 nm and the emission wavelength was set at 450 nm for the DAPI experiments.
A Bio-Tek FL 600 microplate Fluorescence Reader was used to measure the relative level of fluorescence in the DAPI assay.
Assays were conducted in 96-well plates. Each well contained a total volume of 0.1 mL consisting of PEM buffer (0.1 M Pipes, 1 mM EGTA, 1 mM MgCl2, pH 6.9), 0.2 mg bovine microtubule protein, and 10 μg of DAPI. […] The final DMSO concentration was 4%. The plates were incubated at 37° C. for 30 minutes and read in a fluorescence plate reader using an excitation wavelength of 360 nm and an emission wavelength of 460 nm. Fluorescence values were corrected for the sample without compound.
Experiments were done twice in triplicate. Results were subsequently combined and fit to a non-linear regression program.

[3] = S-(1) pharmacokinetics in mouse, plasma and brain levels after single IV dose; assay type: in vivo, CD-1 mice; settings: single IV 20 mg/kg; for AUC(0-inf) / AUC(0-t) / Cmax / MRT: CD-1, mouse
Procedure: S-(1) Pharmacokinetic Data in Mouse Model:
The formulated drug was administered as a single IV bolus via tail vein injection.
Sample Collection timing: Terminal blood (plasma) and brain specimens were collected at 9 times post-dose, with 4 mice per sample time. Sample collection times: 5, 15 min., 2, 8, 24, 32, 48, 72 and 96 hr post-dose (4 mice per sample time).
Blood collection: A terminal blood sample was collected from each mouse via cardiac puncture. The whole blood was collected on wet ice, spun down immediately (at 4° C.), and plasma stored frozen at −20° C. until analysis. The anticoagulant used was K2EDTA. Brain Sample Collection: Whole brains were removed by dissection. Brains were collected on wet ice, weighed, and stored at −20° C.

[4] = Phase 1 Study S-(1)-02 plasma pharmacokinetics (every 21 days); assay type: in vivo, human; settings: for half-life / AUC(0-t): human, plasma; for AUC(0-t): read-out: AUC0-24
Text: Both trials have enrolled patients with advanced solid tumors, non-Hodgkin's lymphoma or Hodgkin's lymphoma that have recurred or progressed following at least standard therapy; patients with malignancies for which there is no standard therapy; patients who are not candidates for standard therapy; or patients who have chosen not to pursue standard therapy. […] Study S-(1)-01 is currently being conducted in the United States. […] Study S-(1)-02 is currently being conducted in the United States and in Israel.
Plasma pharmacokinetics of S-(1) were assessed following the first dose of S-(1) in both studies. Plasma samples were analyzed for S-(1) using a validated LC/MS-MS method.

[5] = mouse, in vivo, Oral 10 mg/kg, injection formulation
[6] = 56 mg/m^2 i.v., first dose, 15:85 Cremophor EL-P/ethanol formulation
[7] = 84 mg/m^2 i.v., first dose, 15:85 Cremophor EL-P/ethanol formulation
[8] = 126 mg/m^2 i.v., first dose, 15:85 Cremophor EL-P/ethanol formulation
[9] = 185 mg/m^2 i.v., first dose, 15:85 Cremophor EL-P/ethanol formulation

Work on `C=C[C@H]1O[C@H]2C[C@H]3OC[C@@]3(OC(C)=O)[C@H]3[C@H](OC(=O)c4ccccc4)[C@]4(C(C)(C)O)CC(OC(=O)[C@H](O)C(CC(C)C)NC(=O)OC(C)(C)C)C(C)=C4[C@H](OC(C)=O)[C@H](O1)[C@]23C` (stereo partly drawn) [S-(1)] yielded an IC50 (PC-3) of 0.03 nM, an F ([1]; Oral 10 mg/kg vs IV 10 mg/kg) of 47% and an AUC(0-inf) ([1]; mouse, in vivo, IV 10 mg/kg) of 7.74 µM·h. The AUC(0-t) ([1]; mouse, in vivo, IV 10 mg/kg) was 6.3 µM·h, the clearance ([1]; mouse, in vivo, IV 10 mg/kg) was 24.8 mL/min/kg and the Vd ([1]; mouse, in vivo, IV 10 mg/kg, read-out: Vdss) was 13.3 L/kg. The half-life ([1]; mouse, in vivo, IV 10 mg/kg) was 6.1 h, the AUC(0-inf) [1, 5] was 3.61 µM·h and the AUC(0-t) [1, 5] was 3.43 µM·h. It also gave a Cmax [1, 5] of 460 nM, a Tmax [1, 5] of 6 h and a half-life [1, 5] of 5.1 h. For the same compound, the IC50 (KBV (MDR+)) was 553 nM, the EC50 [2] was 1580 ± 460 nM and the AUC(0-inf) ([3]; Brain) was 88700 ng·h/mL. For the same compound, the AUC(0-t) ([3]; Brain) was 65000 ng·h/mL, the Cmax ([3]; Brain) was 3730 ng/mL and the MRT ([3]; Brain) was 42.5 h. For the same compound, the AUC(0-inf) ([3]; Plasma) was 17000 ng·h/mL, the AUC(0-t) ([3]; Plasma) was 16900 ng·h/mL and the Cmax ([3]; Plasma) was 1550 ng/mL. The MRT ([3]; Plasma) was 17.6 h, the blood-brain barrier passage ([3]; mouse model) was “not impeded by the blood-brain barrier” and the Cl [4, 6] was 18.9 ± 9.53 L/hr/m^2. The Vss [4, 6] was 232 ± 93.6 L/m^2, the Cl [4, 7] was 15.4 L/hr/m^2 and the Vss [4, 7] was 300 L/m^2. For the same compound, the Cl [4, 8] was 22.1 ± 11.2 L/hr/m^2, the Vss [4, 8] was 166 ± 105 L/m^2 and the t1/2 [4, 8] was 6.27 ± 3.64 h. For the same compound, the Cl [4, 9] was 24.7 ± 12.2 L/hr/m^2, the Vss [4, 9] was 215 ± 116 L/m^2 and the half-life ([4]; intravenous, S-(1)-02 study, all dose groups, read-out: Plasma t1/2 values, range over dose groups) was 3.43 to 8.96 h. For the same compound, the AUC(0-t) ([4]; iv, 56 mg/m2, 56 mg/m^2 i.v., first dose, 15:85 Cremophor EL-P/ethanol formulation) was 2530 ± 847 ng·h/mL, the half-life ([4]; iv, 56 mg/m2, 56 mg/m^2 i.v., first dose, 15:85 Cremophor EL-P/ethanol formulation, read-out: t1/2 (converted)) was 8.96 ± 7.09 h and the AUC(0-t) ([4]; iv, 84 mg/m2, 84 mg/m^2 i.v., first dose, 15:85 Cremophor EL-P/ethanol formulation) was 3710 ng·h/mL. For the same compound, the AUC(0-t) ([4]; iv, 126 mg/m2, 126 mg/m^2 i.v., first dose, 15:85 Cremophor EL-P/ethanol formulation) was 6110 ± 3030 ng·h/mL, the half-life ([4]; iv, 126 mg/m2, 126 mg/m^2 i.v., first dose, 15:85 Cremophor EL-P/ethanol formulation, read-out: t1/2 (converted)) was 10.6 ± 7.1 h and the AUC(0-t) ([4]; iv, 185 mg/m2, 185 mg/m^2 i.v., first dose, 15:85 Cremophor EL-P/ethanol formulation) was 7260 ± 2620 ng·h/mL. For the same compound, the half-life ([4]; iv, 185 mg/m2, 185 mg/m^2 i.v., first dose, 15:85 Cremophor EL-P/ethanol formulation, read-out: t1/2 (converted)) was 3.43 ± 7.31 h.
